Blank lines part the entries; values can stand above or below the molecule they belong to.
Key:
[1] = Clinical study Part 2, Regimen C: plasma PK and metabolite profile after 25 mg oral dose of [14C]-OCA; type: in vivo, human; conditions: for AUC0-t / Cmax / tmax: plasma; for AUC0-t / Cmax: mean (SD); for circulating OCA metabolites other than glyco-OCA and tauro-OCA: metabolite profiling of radioactivity, mass spectrometry, authentic standards
Source text: Part 2 also evaluated the extent of distribution of total radioactivity into blood cells, and identified metabolites accounting for more than 10% of circulating total radioactivity. The concentrations of total radioactivity and total OCA in plasma over time are shown in FIG. 16 (Note: Total OCA calculated as sum of OCA, glyco-OCA, and tauro-OCA concentrations at each time point, glyco-OCA, and tauro-OCA concentrations at each time point expressed as mass equivalents of OCA) and FIG. 17 (Note: Total OCA calculated as sum of OCA, glyco-OCA, and tauro-OCA concentrations at each time point, glyco-OCA, and tauro-OCA concentrations at each time point expressed as mass equivalents of OCA. Units for total radioactivity are mass equivalent to OCA (i.e. ng-eq OCA/mL)). […] Two additional OCA metabolites were identified: OCA-3 glucuronide and OCA-24 glucuronide, based on the metabolite profiling of radioactivity, mass spectrometry, and authentic standards for the glucuronide metabolites. […] Following Cmax, OCA concentration declined rapidly within the first 4 hours. The maximum exposure of total OCA, including the conjugates, occurred after meals, consistent with gallbladder release and enterohepatic recirculation, leading to exposure levels being observed over the approximately 4-week sampling period.

[2] = Clinical study Part 1, Regimen A: oral plasma PK and absolute bioavailability of 25 mg OCA tablet; type: in vivo, human
Description: The objectives of this study were to determine the absolute bioavailability of OCA, and evaluate the absorption, distribution, metabolism, and excretion of OCA in healthy male subjects. In addition, the oral pharmacokinetics (PK) of OCA and carbon-14 ([^14C]-OCA, and intravenous (IV) PK of [^14C]-OCA were evaluated.
The PK objectives of Part 1 were to determine the absolute bioavailability of OCA, to define the intravenous (IV) PK of a microtracer dose of [14C] OCA, and to evaluate the oral PK of OCA. In Part 1, subjects were administered the oral dose (Regimen A: 25 mg OCA tablet), followed by the IV microtracer dose (Regimen B: 100 μg [14C]-OCA) 1 hour 45 minutes after the oral dose administration. The 15 minute IV infusion ended at the estimated tmax for the oral dose (2 hours).
To evaluate the oral PK, plasma concentrations of OCA and its conjugates were measured following an oral dose (Regimen A: 25 mg OCA). OCA was rapidly absorbed; the median tmax was 0.5 hrs. Following Cmax, OCA concentration declined rapidly within 4 hours, consistent with the IV profile of OCA. Subsequent OCA concentrations remained, on average, less than 10% of Cmax up to 72 hours post-dose. A prolonged profile of OCA was observed over the course of 72 hours (FIG. 4). This low level persistence of parent OCA is most likely due to deconjugation of glyco-OCA and tauro-OCA by commensal bacteria in the ileum and colon, followed by reabsorption of OCA.
Mean (SD) plasma concentrations over time of total OCA (the sum of OCA, glyco-OCA, and tauro-OCA) are presented in FIG. 15 (Note: Total OCA calculated as sum of OCA, glyco-OCA, and tauro-OCA concentrations at each time point, glyco-OCA, and tauro-OCA concentrations at each time point expressed as mass equivalents of OCA). Consistent with the [^14C]-OCA results, the maximum exposure of total OCA occurred after a meal, consistent with gallbladder release and enterohepatic recirculation, leading to exposure levels being observed up to 72 hours post-dose. Based on overall exposure of total OCA (AUC0-t), glyco-OCA and tauro-OCA are the primary components of exposure, with minimal contribution (less than 10%) from the parent (OCA).
Absolute bioavailability was determined by the ratio of dose normalized AUC for oral dose/dose normalized AUC for IV dose. […] This relatively low value for bioavailability is consistent with the efficient uptake typical of bile acids into the liver, the primary site of action of OCA. PK results were as expected for a bile acid. OCA is rapidly absorbed in the intestine and taken up in the liver, where it is conjugated with glycine and taurine. Glyco-OCA and tauro-OCA were the primary components of exposure, with minimal contribution from the parent (OCA). Enterohepatic recirculation produced an extended profile, with maximum exposure occurring after meals.

[3] = statement, no data shown; cited from earlier work
[4] = target: T1, farnesoid X receptor (FXR) (Homo sapiens, UniProt Q96RI1); conditions: background statement; cited from earlier work
T1 sequence (Q96RI1 1-486): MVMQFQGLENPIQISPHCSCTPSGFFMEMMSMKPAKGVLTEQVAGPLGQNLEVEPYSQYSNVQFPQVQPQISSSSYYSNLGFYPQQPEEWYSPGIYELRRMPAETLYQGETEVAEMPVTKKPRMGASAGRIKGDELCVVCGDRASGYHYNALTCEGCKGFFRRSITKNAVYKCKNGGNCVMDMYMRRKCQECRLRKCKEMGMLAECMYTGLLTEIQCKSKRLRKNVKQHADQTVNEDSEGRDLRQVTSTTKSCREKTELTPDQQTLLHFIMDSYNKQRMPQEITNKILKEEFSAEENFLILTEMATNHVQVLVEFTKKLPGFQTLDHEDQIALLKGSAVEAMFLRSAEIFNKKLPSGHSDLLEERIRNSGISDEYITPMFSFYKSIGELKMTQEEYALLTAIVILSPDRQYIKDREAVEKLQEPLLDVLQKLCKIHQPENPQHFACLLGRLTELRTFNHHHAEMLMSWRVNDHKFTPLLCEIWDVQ

[5] = rat; single oral administration of [14C] OCA
Source text: Preclinical mass balance and radiolabeled single dose PK studies in the rat have examined biliary, urinary, and fecal excretion of OCA and its metabolites.

[6] = Clinical study Part 2: mass balance recovery of radioactivity in urine and feces after 25 mg oral [14C]-OCA; type: in vivo, human
Description: Part 2 also evaluated the extent of distribution of total radioactivity into blood cells, and identified metabolites accounting for more than 10% of circulating total radioactivity. The mean cumulative recovery (cumulative % Ae (Amount excreted)) of radioactivity in the urine and feces of subjects receiving oral [^14C]-OCA is shown in FIG. 18. […] The majority of drug-related material in the feces was recovered within 552 hours of dosing with investigational product. In Part 2 (Mass Balance), the mass balance data confirmed that the primary elimination route of OCA is through the feces. A mean of 87% of administered radioactivity was recovered from the feces over the entire collection period, and a minor percentage (<3%) was recovered from the urine.

[7] = Clinical study Part 1, Regimen B: IV plasma PK of 100 μg microtracer dose of [14C]-OCA; type: in vivo, human
Description: The objectives of this study were to determine the absolute bioavailability of OCA, and evaluate the absorption, distribution, metabolism, and excretion of OCA in healthy male subjects. […] Mean plasma concentrations of total radioactivity are shown in FIG. 12, and of [^14C]-OCA in FIG. 13. The highest concentration of radioactivity in plasma was measured after completion of the IV dose, and the concentrations of OCA declined rapidly within 4 hours. After the initial decline, a low-level, prolonged profile of OCA and total radioactivity was observed, as expected due to enterohepatic recirculation.

[8] = 25 mg oral dose of [14C]-OCA, N = 8
[9] = 25 mg oral dose of [14C]-OCA, median and range, N = 8
[10] = plasma, single oral dose 25 mg OCA tablet, mean (SD), N = 5
[11] = plasma, single oral dose 25 mg OCA tablet, median and range, N = 5
[12] = by 504 hours postdose, single oral 25 mg [14C]-OCA
[13] = over the entire collection period
[14] = male, human, plasma [14C]-OCA, 15 minute IV infusion of 100 μg [14C]-OCA, mean (SD), N = 5

- AUC0-t [1, 8]: 4690 (2232) ^ hours*ng/mL
- Cmax [1, 8]: 73.8 (39.96) ng/mL
- tmax [1, 9]: 10.0 (3.00, 36.0) h
- AUC0-t [2, 10]: 1540 (480.7) hours*ng/mL
- Cmax [2, 10]: 57.4 (24.43) ng/mL
- tmax [2, 11]: 8.000 (2.00, 36.00) h
Structure (SMILES): CC[C@H]1[C@@H](O)[C@@H]2[C@H](CC[C@]3(C)[C@@H]([C@H](C)CCC(=O)NCC(=O)O)CC[C@@H]23)[C@@]2(C)CC[C@@H](O)C[C@@H]12 [Glyco-OCA]
- pharmacological action compared with parent drug (OCA) [3]: equipotent

- tmax ([1]; male, human, 25 mg oral [14C]-OCA, read-out: median tmax): 75 min
- AUC0-t ([1]; male, human, 25 mg oral dose of [14C]-OCA, N = 8, read-out: AUC0-t): 475 ng·h/mL
- Cmax ([1]; male, human, 25 mg oral dose of [14C]-OCA, N = 8, read-out: Cmax): 63.7 ng/mL
- tmax [1, 9]: 1.25 (0.750, 2.50) h
- bioavailability ([2]; male, human, plasma, oral, 25 mg, ratio of dose normalized AUC oral 25 mg OCA / IV 100 μg [14C]-OCA, mean (SD), N = 5, read-out: F (absolute bioavailability)): ~17%
- tmax ([2]; male, human, plasma, oral 25 mg OCA, read-out: median tmax): 30 min
- AUC0-t ([2]; male, human, plasma, single oral dose 25 mg OCA tablet, mean (SD), N = 5, read-out: AUC0-t): 144 ng·h/mL
- Cmax ([2]; male, human, plasma, single oral dose 25 mg OCA tablet, mean (SD), N = 5, read-out: Cmax): 80.9 ng/mL
- subsequent OCA plasma concentrations relative to Cmax ([2]; on average, after the decline within 4 hours, up to 72 hours post-dose, oral 25 mg OCA): less than 10%
- contribution of parent to overall exposure of total OCA (AUC0-t) ([2]; oral 25 mg OCA): less than 10%
- tmax [2, 11]: 0.500 (0.50, 2.03) h
Structure (SMILES): CC[C@H]1[C@@H](O)[C@@H]2[C@H](CC[C@]3(C)[C@@H]([C@H](C)CCC(=O)O)CC[C@@H]23)[C@@]2(C)CC[C@@H](O)C[C@@H]12 [OCA, 3α,7α-dihydroxy-6α-ethyl-5β-cholan-24-oic acid]
- FXR activity [4]: highly potent FXR modulator

- circulating OCA metabolites other than glyco-OCA and tauro-OCA [1]: identified
Structure (SMILES): CC[C@H]1[C@@H](O)C2C3CC[C@H]([C@H](C)CCC(=O)O)[C@@]3(C)CCC2[C@@]2(C)CC[C@@H](O[C@@H]3O[C@H](C(=O)O)[C@@H](O)[C@H](O)[C@H]3O)C[C@@H]12 (some centres unmarked) [OCA-3 glucuronide, OCA-3-O-Glucuronide]

- circulating OCA metabolites other than glyco-OCA and tauro-OCA [1]: identified
Structure (SMILES): CC[C@H]1[C@@H](O)[C@H]2C3CC[C@H]([C@H](C)CCC(=O)O[C@@H]4O[C@H](C(=O)O)[C@@H](O)[C@H](O)[C@H]4O)[C@@]3(C)CC[C@@H]2[C@@]2(C)CC[C@@H](O)C[C@@H]12 (some centres unmarked) [OCA-24 glucuronide]

- AUC0-t [1, 8]: 2550 (2155) ^ hours*ng/mL
- Cmax [1, 8]: 24.4 (14.21) ng/mL
- tmax [1, 9]: 9.03 (2.50, 36.0) h
- AUC0-t [2, 10]: 624 (159.6) hours*ng/mL
- Cmax [2, 10]: 23.1 (7.412) ^ ng/mL
- tmax [2, 11]: 36.000 (2.00, 60.00) h
Structure (SMILES): CC[C@H]1[C@@H](O)[C@@H]2[C@H](CC[C@]3(C)[C@@H]([C@H](C)CCC(=O)NCCS(=O)(=O)O)CC[C@@H]23)[C@@]2(C)CC[C@@H](O)C[C@@H]12 [Tauro-OCA]
- pharmacological action compared with parent drug (OCA) [3]: equipotent

- route of excretion of radioactivity [5]: excreted mainly in the feces
- total radioactivity administered recovered from feces, mean ([6]; at 1152 hours): 87.0%
- radioactivity recovered from feces, average [6, 12]: 72.3%
- total radioactivity administered recovered from urine and feces, mean [6, 12]: 75.1%
- administered radioactivity recovered from the feces, mean [6, 13]: 87%
- administered radioactivity recovered from the urine [6, 13]: < 3%
- total radioactivity recovered from the urine, average ([6]; single oral 25 mg [14C]-OCA): 2.83%
- Vs (volume of distribution) ([7]; 15 minute IV infusion of 100 μg [14C]-OCA, mean (SD), N = 5): 618 (341.9) L
- clearance ([7]; male, human, plasma, 15 minute IV infusion of 100 μg [14C]-OCA, mean (SD), N = 5, read-out: CL (total plasma clearance) (converted)): 417 mL/min
- Vd ([7]; male, human, plasma, 15 minute IV infusion of 100 μg [14C]-OCA, mean (SD), N = 5, read-out: Vss (volume of distribution at steady state)): 210 L
- AUC0-t [7, 14]: 3.86 ng·h/mL
- Cmax [7, 14]: 9.71 ng/mL
- AUC0-t of [14C]-OCA as share of the total radioactive exposure ([7]; over 72 hours, IV 100 μg [14C]-OCA): approximately 20%
Structure (SMILES): CC[C@H]1[C@@H](O)C2C3CC[C@H]([C@H](C)CCC(=O)O)[C@@]3(C)CCC2[C@@]2(C)CC[C@@H](O)C[C@@H]12 (some centres unmarked) [[^14C]-OCA, [^14C]OCA]

— patent US11472831B2, “Isotopically labeled bile acid derivatives” (Intercept Pharmaceuticals, Inc., priority 2017, dated 2022)
